What all share (experiment): NCI anticancer screen, dose series, 48 h
The test system of assay [1] is T-47D breast.
Assay [2] concerns MDA-MB-231 breast.
In assay [3] the test system is RXF-631 renal.
Assay [4] concerns 786-0 renal.

Each structure is given as a SMILES string.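 Five concentrations, 48 hours, 96-well plates. GI50 = concentration required for 50% inhibition of growth. TGI: total growth inhibition.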

Regarding `COc1cc(CN(C)N2C(=O)c3cccc4cc([N+](=O)[O-])cc(c34)C2=O)cc(OC)c1OC`, the TGI in assay [1] and in assay [2] was greater than 100 µM each time. As to `CC1(C)CCCC2(C)[C@@H]1CC[C@]13C[C@](C)(CC[C@@H]21)[C@@H]3CO` (stereo not given in full), in assay [3], the TGI is greater than 100 µM.

In assay [4], `Cc1ccc(NCCO)cc1` had a TGI greater than 100 µM. As for `Fc1cc(C2=Nn3c(nnc3-c3cc(F)c(Cl)cc3Cl)SC2)c(Cl)cc1Cl`, the GI50 was 4.93 µM in assay [1] and 13.4 µM in assay [2]. In addition, the TGI in assay [1] was 32.5 µM; in assay [2], 34.5 µM. `Cc1cc(C)c(S(=O)(=O)N(CCCCCCN)OCCCON(CCCCCCN)S(=O)(=O)c2c(C)cc(C)cc2C)c(C)c1`: in assay [2], the TGI was determined as 3.21 µM.

With `CCNc1nc2c(=O)n(C)c(=O)n(C)c2s1`, the TGI in assay [4] is greater than 100 µM.

For the origin of these results see PubChem BioAssay (NCI).
